Measured values: patent US12458605B2, “Lipid nanoparticle” (National University Corporation Hokkaido University, priority 2020, dated 2025)

Key:
[1] = Storage stability of FlucmRNA-loaded LNP at −80, 5, 25 and 40° C.; assay type: physicochemical; conditions: for period for which quality remained good, −80° C.: maximum storage period 1 week; for period for which quality remained good, 5° C. / period for which quality remained good, 25° C. / period for which quality remained good, 40° C. (weeks): maximum storage period 5 weeks
Procedure, shortened: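 FlucmRNA-loaded LNPs held at −80, 5, 25 or 40° C; at each time point size, PDI and encapsulation measured. Quality deemed maintained while size stays within ±20 nm of preparation day, PDI ≤0.2 and encapsulation ≥80%; value is the period meeting all three.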

[2] = siRNA/mRNA encapsulation rate by Ribogreen reagent (section IV); assay type: physicochemical; conditions: for % siRNA encapsulation: F7siRNA-loaded LNP, 50:10:38.5:1.5, N/P ratio 6; for % mRNA encapsulation: FlucmRNA-loaded LNP, 50:10:38.5:1.5
Procedure, shortened: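 LNPs diluted in TE buffer to 8 μg/mL nucleic acid for surface RNA, or to 1.2 μg/mL with 1% Triton X-100 for total RNA. RiboGreen fluorescence (ex 485/em 528 nm) quantified against a Triton-containing standard curve (0-2.5 μg/mL). Encapsulation % = (total − surface)/total × 100.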

CCCN(CCC)CCCCC(O)(CCCCCCOC(=O)C(CCC(C)CC(C)(C)C)C(C)CC(C)(C)C)CCCCCCOC(=O)C(CCC(C)CC(C)(C)C)C(C)CC(C)(C)C (stereo not drawn) [CL4G6, 7-(4-(dipropylamino)butyl)-7-hydroxytridecan-1,13-diyl bis(2-(4.4-dimethylpentan-2-yl)-5,7,7-trimethyloctanoate)]
period for which quality remained good, −80° C. [1]: 1 week
period for which quality remained good, 5° C. [1]: 5 weeks
period for which quality remained good, 25° C. [1]: 5 weeks
period for which quality remained good, 40° C. (weeks) [1]: 5 weeks
% siRNA encapsulation [2]: 100.1%
% mRNA encapsulation [2]: 99.8%

CCCCCCCCC(CCCCCC)C(=O)OCCCCCCC(O)(CCCCCCOC(=O)C(CCCCCC)CCCCCCCC)CCCCOC(=O)C1CCN(C)CC1 (stereo not drawn) [CL15F6]
period for which quality remained good, −80° C. [1]: 1 week
period for which quality remained good, 5° C. [1]: 5 weeks
period for which quality remained good, 25° C. [1]: 5 weeks
period for which quality remained good, 40° C. (weeks) [1]: 5 weeks
% siRNA encapsulation [2]: 100.5%
% mRNA encapsulation [2]: 99.69%
